Experimental data reported in US12421205B2, “GLP-1 receptor agonist” (HYUNDAI PHARM CO., LTD., priority 2019, dated 2025).

How the values were obtained:
[1] = target: T1, human GLP-1 receptor (Homo sapiens, UniProt P43220); test: cAMP activity test (cAMP dynamic HTRF kit) in CHO-K1/GLP-1 receptor-expressing cells; format: cell-based; conditions: cAMP activity, CHO-K1/GLP-1 receptor-expressing cells; read-out: EC50
T1 construct: host or cells: CHO-K1
Method in brief: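 Cells in HBSS with 0.1% BSA, 0.5 mM IBMX and 5 mM HEPES, then lysed; cAMP-d2 and anti-cAMP cryptate added for 3 h. HTRF read-out, where FRET signal is inversely proportional to intracellular cAMP.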

[2] = target: T2, hERG (Homo sapiens, UniProt Q12809); test: hERG inhibition test (Predictor hERG Fluorescence Polarization assay kit); format: binding; conditions: probe kit Tracer (fluorescent hERG ligand), hERG % inhibition at 10 uM, relative to E-4031 and solvent control
T2 construct: purchased Invitrogen PV5365
T2 sequence (Q12809 whole entry): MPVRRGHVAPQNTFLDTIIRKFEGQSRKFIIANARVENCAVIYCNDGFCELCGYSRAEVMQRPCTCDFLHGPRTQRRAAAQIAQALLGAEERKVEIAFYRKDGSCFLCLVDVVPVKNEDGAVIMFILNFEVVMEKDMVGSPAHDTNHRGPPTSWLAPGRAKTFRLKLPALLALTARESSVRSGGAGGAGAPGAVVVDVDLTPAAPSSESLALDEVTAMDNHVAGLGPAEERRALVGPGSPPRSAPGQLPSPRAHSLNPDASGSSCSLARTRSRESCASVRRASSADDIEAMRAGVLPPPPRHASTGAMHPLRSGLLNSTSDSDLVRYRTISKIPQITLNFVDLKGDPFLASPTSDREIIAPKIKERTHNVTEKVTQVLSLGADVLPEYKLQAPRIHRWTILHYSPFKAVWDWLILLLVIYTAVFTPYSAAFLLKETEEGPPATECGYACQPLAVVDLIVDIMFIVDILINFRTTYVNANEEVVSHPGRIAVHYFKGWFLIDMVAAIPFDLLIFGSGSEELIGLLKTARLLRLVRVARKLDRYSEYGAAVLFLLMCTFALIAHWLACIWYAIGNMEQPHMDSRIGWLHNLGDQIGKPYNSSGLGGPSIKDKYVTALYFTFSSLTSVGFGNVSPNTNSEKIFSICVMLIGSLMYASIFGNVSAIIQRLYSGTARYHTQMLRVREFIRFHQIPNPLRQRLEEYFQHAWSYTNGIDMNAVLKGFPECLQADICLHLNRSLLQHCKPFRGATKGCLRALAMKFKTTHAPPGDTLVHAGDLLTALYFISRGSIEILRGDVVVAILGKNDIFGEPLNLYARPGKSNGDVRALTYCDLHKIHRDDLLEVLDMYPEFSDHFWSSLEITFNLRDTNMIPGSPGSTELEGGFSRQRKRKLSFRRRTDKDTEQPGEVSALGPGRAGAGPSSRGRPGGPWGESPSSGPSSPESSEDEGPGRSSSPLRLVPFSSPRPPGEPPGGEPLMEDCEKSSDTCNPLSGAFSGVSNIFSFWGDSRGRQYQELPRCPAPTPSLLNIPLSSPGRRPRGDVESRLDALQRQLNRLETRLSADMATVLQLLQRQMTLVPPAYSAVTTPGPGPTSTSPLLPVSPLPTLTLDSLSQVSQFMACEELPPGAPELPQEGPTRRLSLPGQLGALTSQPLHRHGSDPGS
Method in brief: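 Competitive fluorescence-polarization binding of fluorescent tracer to hERG membrane preparation, 2.5 h at room temperature, mP read at 531/579 nm. % inhibition at 10 uM test compound, scaled between solvent control (0%) and E-4031 (100%).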

T1 sequence (P43220 24-463): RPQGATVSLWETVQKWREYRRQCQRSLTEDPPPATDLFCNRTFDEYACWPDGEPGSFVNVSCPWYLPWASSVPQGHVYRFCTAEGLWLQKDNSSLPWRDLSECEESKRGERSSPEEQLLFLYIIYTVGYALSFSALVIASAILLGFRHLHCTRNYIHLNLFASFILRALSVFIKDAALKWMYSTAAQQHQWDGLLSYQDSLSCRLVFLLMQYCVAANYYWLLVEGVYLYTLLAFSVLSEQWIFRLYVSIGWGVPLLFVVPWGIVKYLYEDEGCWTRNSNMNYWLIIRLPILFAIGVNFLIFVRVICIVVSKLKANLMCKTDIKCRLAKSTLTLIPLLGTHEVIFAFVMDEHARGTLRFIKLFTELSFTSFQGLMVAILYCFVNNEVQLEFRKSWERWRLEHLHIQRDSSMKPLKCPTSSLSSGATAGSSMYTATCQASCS

SMILES	EC50 [1] [nM]	inhibition at 2.5 h, 10 µM [2] [%]
N#Cc1ccc(COc2cccc(-c3cc(F)c(Cc4nc5ccc(C(=O)O)cc5n4C[C@@H]4CCO4)c(F)c3)n2)c(F)c1 [Example 103, (S)-2-(4-(6-(4-cyano-2-fluorobenzyloxy)pyridin-2-yl)-2,6-difluorobenzyl)-1-(oxetan-2-ylmethyl)-1H-benzo[d]imidazole-6-carboxylic acid]	< 3.2	5.66
O=C(O)c1ccc2nc(Cc3ccc(-c4cccc(OCc5ccc(Cl)cc5F)c4)cc3F)n(Cc3cnco3)c2c1 [Example 32, 2-((3′-(4-chloro-2-fluorobenzyloxy)-3-fluorobiphenyl-4-yl)methyl)-1-(oxazol-5-ylmethyl)-1H-benzo[d]imidazole-6-carboxylic acid]	32	-11.7
N#Cc1ccc(COc2cccc(-c3ccc(Cc4nc5ccc(C(=O)O)cc5n4C[C@H]4CCCO4)cc3F)c2)c(F)c1 [Example 47, (R)-2-((3′-(4-cyano-2-fluorobenzyloxy)-2-fluorobiphenyl-4-yl)methyl)-1-((tetrahydrofuran-2-yl)methyl)-1H-benzo[d]imidazole-6-carboxylic acid]	1300	-17.1
O=C(O)c1ccc2nc(Cc3ccc(-c4cccc(OCc5ccc(Br)cc5F)n4)cc3F)n(CC3CCCO3)c2c1 (centres unmarked) [Example 89, 2-(4-(6-(4-bromo-2-fluorobenzyloxy)pyridin-2-yl)-2-fluorobenzyl)-1-((tetrahydrofuran-2-yl)methyl)-1H-benzo[d]imidazole-6-carboxylic acid]	11	22.1
O=C(O)c1ccc2nc(Cc3ccc(-c4cccc(OCc5ccc(Cl)cc5F)c4)c(F)c3)n(C[C@H]3CCCO3)c2c1 [Example 42, (R)-2-((3′-(4-chloro-2-fluorobenzyloxy)-2-fluorobiphenyl-4-yl)methyl)-1-((tetrahydrofuran-2-yl)methyl)-1H-benzo[d]imidazole-6-carboxylic acid]	250	-23.6
N#Cc1ccc(COc2cccc(-c3ccc(Cc4nc5ccc(C(=O)O)cc5n4CC4CCCO4)cc3F)n2)c(F)c1 (centres unmarked) [Example 130, 2-(4-(6-((4-cyano-2-fluorobenzyl)oxy)pyridin-2-yl)-3-fluorobenzyl)-1-((tetrahydrofuran-2-yl)methyl)-1H-benzo[d]imidazole-6-carboxylic acid]	21	-6.76
N#Cc1ccc(COc2cccc(-c3ccc(Cc4nc5ccc(C(=O)O)cc5n4CC4CCCO4)c(F)c3)n2)c(F)c1 (centres unmarked) [Example 15, 2-(4-(6-(4-cyano-2-fluorobenzyloxy)pyridin-2-yl)-2-fluorobenzyl)-1-((tetrahydrofuran-2-yl)methyl)-1H-benzo[d]imidazole-6-carboxylic acid]	16	1.67
COCCn1c(Cc2ccc(-c3cccc(OCc4ccc(C#N)cc4F)n3)cc2)nc2ccc(C(=O)O)cc21 [Example 20, 2-(4-(6-(4-cyano-2-fluorobenzyloxy)pyridin-2-yl)benzyl)-1-(2-methoxyethyl)-1H-benzo[d]imidazole-6-carboxylic acid]	240	6.19
N#Cc1ccc(COc2cccc(-c3ccc(Cc4nc5ccc(C(=O)O)cc5n4CCF)c(F)c3)n2)c(F)c1 [Example 44, 2-(4-(6-(4-cyano-2-fluorobenzyloxy)pyridin-2-yl)-2-fluorobenzyl)-1-(2-fluoroethyl)-1H-benzo[d]imidazole-6-carboxylic acid]	230	1.77
COCCn1c(Cc2ccc(-c3cccc(OCc4ccc(Cl)cc4F)c3)c(F)c2)nc2ccc(C(=O)O)cc21 [Example 39, 2-((3′-(4-chloro-2-fluorobenzyloxy)-2-fluorobiphenyl-4-yl)methyl)-1-(2-methoxyethyl)-1H-benzo[d]imidazole-6-carboxylic acid]	250	-12.8
O=C(O)c1ccc2nc(Cc3ccc(-c4cccc(OCc5ccc(Cl)cc5F)n4)c(F)c3)n(Cc3cccs3)c2c1 [Example 50, 2-(4-(6-(4-chloro-2-fluorobenzyloxy)pyridin-2-yl)-3-fluorobenzyl)-1-(thiophen-2-ylmethyl)-1H-benzo[d]imidazole-6-carboxylic acid]	15	4.72
Cc1cc(Cc2nc3ccc(C(=O)O)cc3n2Cc2ccco2)ccc1-c1cccc(OCc2ccc(C#N)cc2F)c1 [Example 29, 2-((3′-(4-cyano-2-fluorobenzyloxy)-2-methylbiphenyl-4-yl)methyl)-1-(furan-2-ylmethyl)-1H-benzo[d]imidazole-6-carboxylic acid]	900	-0.75
N#Cc1ccc(COc2cccc(-c3cc(F)c(Cc4nc5ccc(C(=O)O)cc5n4CC4CCCO4)cc3F)n2)c(F)c1 (centres unmarked) [Example 71, 2-(4-(6-(4-cyano-2-fluorobenzyloxy)pyridin-2-yl)-2,5-difluorobenzyl)-1-((tetrahydrofuran-2-yl)methyl)-1H-benzo[d]imidazole-6-carboxylic acid]	< 3.2	-2.52
O=C(O)c1ccc2nc(Cc3ccc(-c4cccc(OCc5ccc(Cl)cc5F)n4)cc3F)n(Cc3ccco3)c2c1 [Example 13, 2-(4-(6-(4-chloro-2-fluorobenzyloxy)pyridin-2-yl)-2-fluorobenzyl)-1-(furan-2-ylmethyl)-1H-benzo[d]imidazole-6-carboxylic acid]	35	-7.76
COCCn1c(Cc2ccc(-c3cccc(COc4ccc(Cl)cc4F)n3)cc2[N+](=O)[O-])nc2ccc(C(=O)O)cc21 [Example 7, 2-(4-(6-((4-chloro-2-fluorophenoxy)methyl)pyridin-2-yl)-2-nitrobenzyl)-1-(2-methoxyethyl)-1H-benzo[d]imidazole-6-carboxylic acid]	2000	1.63
N#Cc1ccc(COc2cccc(-c3ccc(Cc4nc5ccc(C(=O)O)cc5n4C[C@@H]4CCCO4)c(F)c3)n2)c(F)c1 [Example 66, (S)-2-(4-(6-(4-cyano-2-fluorobenzyloxy)pyridin-2-yl)-2-fluorobenzyl)-1-((tetrahydrofuran-2-yl)methyl)-1H-benzo[d]imidazole-6-carboxylic acid]	4.6	-7.97
Cc1cccc(COc2cccc(-c3ccc(Cc4nc5ccc(C(=O)O)cc5n4CC4CCCO4)cc3F)n2)c1 (centres unmarked) [Example 90, 2-(3-fluoro-4-(6-(3-methylbenzyloxy)pyridin-2-yl)benzyl)-1-((tetrahydrofuran-2-yl)methyl)-1H-benzo[d]imidazole-6-carboxylic acid]	250	20.2
O=C(O)c1ccc2nc(Cc3ccc(-c4cccc(OCc5ccc(Cl)cc5F)c4)cc3F)n(CC3CCCO3)c2c1 (centres unmarked) [Example 16, 2-((3′-(4-chloro-2-fluorobenzyloxy)-3-fluorobiphenyl-4-yl)methyl)-1-((tetrahydrofuran-2-yl)methyl)-1H-benzo[d]imidazole-6-carboxylic acid]	82	-0.94
COc1cccc(COc2cccc(-c3ccc(Cc4nc5ccc(C(=O)O)cc5n4CC4CCCO4)c(F)c3)n2)c1 (centres unmarked) [Example 81, 2-(2-fluoro-4-(6-(3-methoxybenzyloxy)pyridin-2-yl)benzyl)-1-((tetrahydrofuran-2-yl)methyl)-1H-benzo[d]imidazole-6-carboxylic acid]	210	-43.5
COCCn1c(Cc2ccc(-c3cccc(OCc4ccc(C#N)cc4F)c3)cc2)nc2ccc(C(=O)O)cc21 [Example 21, 2-((3′-(4-cyano-2-fluorobenzyloxy)biphenyl-4-yl)methyl)-1-(2-methoxyethyl)-1H-benzo[d]imidazole-6-carboxylic acid]	420	-9.94
N#Cc1ccc(COc2cccc(-c3ccc(Cc4nc5ccc(C(=O)O)cc5n4Cc4ccco4)cc3)c2)c(F)c1 [Example 27, 2-((3′-(4-cyano-2-fluorobenzyloxy)biphenyl-4-yl)methyl)-1-(furan-2-ylmethyl)-1H-benzo[d]imidazole-6-carboxylic acid]	270	-4.76
O=C(O)c1ccc2nc(Cc3c(F)cc(-c4cccc(OCc5ccc(Cl)cc5F)n4)cc3F)n(CC3CCCO3)c2c1 (centres unmarked) [Example 65, 2-(4-(6-(4-chloro-2-fluorobenzyloxy)pyridin-2-yl)-2,6-difluorobenzyl)-1-((tetrahydrofuran-2-yl)methyl)-1H-benzo[d]imidazole-6-carboxylic acid]	5	10.8
O=C(O)c1ccc2nc(Cn3ccc(-c4cccc(OCc5ccc(Cl)cc5F)n4)cc3=O)n(C[C@@H]3CCO3)c2c1 [Example 110, (S)-2-((6-((4-chloro-2-fluorobenzyl)oxy)-2′-oxo-[2,4′-bipyridin]-1′(2′H)-yl)methyl)-1-(oxetan-2-ylmethyl)-1H-benzo[d]imidazole-6-carboxylic acid]	16	7.61
O=C(O)c1ccc2nc(Cc3ccc(-c4cccc(OCc5ccc(Cl)cc5F)c4)cc3F)n(C[C@H]3CCCO3)c2c1 [Example 41, (R)-2-((3′-(4-chloro-2-fluorobenzyloxy)-3-fluorobiphenyl-4-yl)methyl)-1-((tetrahydrofuran-2-yl)methyl)-1H-benzo[d]imidazole-6-carboxylic acid]	110	-16
N#Cc1ccc(COc2cccc(-c3ccc(Cc4nc5ccc(C(=O)O)cc5n4CC4CCCO4)c(F)c3F)n2)c(F)c1 (centres unmarked) [Example 62, 2-(4-(6-(4-cyano-2-fluorobenzyloxy)pyridin-2-yl)-2,3-difluorobenzyl)-1-((tetrahydrofuran-2-yl)methyl)-1H-benzo[d]imidazole-6-carboxylic acid]	37	-7.49
